From PubChem BioAssay AID720632 (Broad Institute, 2013)
The source made the active and inactive calls. The rule behind the calls is not given here.

Target: Caspase-6 (Homo sapiens) (UniProt P55212)
Test: human caspase-6 inhibitors, dose response, biochemical, VEID-R110 fluorescence, cherry-pick (AID 720632)
Settings: caspase-6, VEID-R110 fluorogenic substrate

Sequence of Caspase-6 (Homo sapiens) (P55212 24-179 limits assumed): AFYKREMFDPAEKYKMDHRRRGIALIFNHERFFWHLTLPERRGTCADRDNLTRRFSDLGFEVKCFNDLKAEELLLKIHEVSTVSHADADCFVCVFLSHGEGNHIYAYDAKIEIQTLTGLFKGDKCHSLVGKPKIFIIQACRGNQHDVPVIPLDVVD
Sequence of Caspase-6 (Homo sapiens) (P55212 194-293 limits assumed): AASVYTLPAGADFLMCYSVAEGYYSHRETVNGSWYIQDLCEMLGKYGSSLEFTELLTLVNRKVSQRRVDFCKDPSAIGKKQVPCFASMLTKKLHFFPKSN

Compound	activity change, negative = inhibition (at 26 µM (top of the series))	other results
O=C(NCC(=O)N1CC=C(c2ccccc2)CC1)c1ccccc1Br	inactive	–
Cc1onc(-c2ccc(Cl)cc2Cl)c1-c1csc(N/N=C/c2ccccc2Cl)n1	inactive	–
CCOC(=O)C1CCCN(S(=O)(=O)c2nc3nc(C)cc(C)n3n2)C1 (stereo not given)	inactive	–
CN(C)c1ccc2c(c1)[C@@H]1C[C@@H](CC(=O)NCc3ccccn3)O[C@@H](CO)[C@@H]1O2	inactive	–
O=C1CC(NS(=O)(=O)c2cc(F)ccc2F)CN1c1cccc(F)c1 (stereo not given)	inactive	–
COC(=O)[C@@H]1[C@@H](CO)[C@@H]2Cn3c(cccc3=O)[C@@H]2N1CC1CCOCC1	inactive	–
COCC(=O)Nc1ccc2c(c1)OC[C@@H](C)N(CC1CC1)C[C@@H](C)[C@H](OC)CN(C)C2=O	inactive	–
CCN(CC)CCN(CC)Cc1ccccc1Br	inactive	–
CC(=O)N1c2ccc(S(=O)(=O)N(C)CC(=O)NCc3ccc(C)cc3)cc2CC1C (stereo not given)	inactive	–
Cc1ccc(C(=O)O)cc1NC(=O)c1ccc2c(c1)C(=O)N(c1ccc([N+](=O)[O-])cc1)C2=O	inactive	–
O=S(=O)(c1cccc2cccnc12)N1CCN(c2ccc(F)cc2)CC1	inactive	–
COCC(=O)Nc1ccc2c(c1)OC[C@H](C)N(CC1CC1)C[C@@H](C)[C@H](OC)CN(C)C2=O	–	activity change, negative = inhibition (at 23.5 µM (top of the series)): inactive
Oc1ccc(/C=N/N=C/c2ccc(O)c(O)c2)cc1O	inactive	–
CCC(C)CN1C(=O)CN(S(C)(=O)=O)CC1(C)C(=O)Nc1ccc2c(c1)OCCO2 (stereo not given)	inactive	–
COc1ccccc1N(Cc1ccccc1)S(=O)(=O)c1cccc(C(=O)Nc2ccccn2)c1	inactive	–
COc1ccccc1C(=O)Nc1ccc2c(c1)OC[C@H](C)N(CC1CC1)C[C@@H](C)[C@H](OC)CN(C)C2=O	inactive	–
CO[C@H]1CN(C)C(=O)c2ccc(NC(=O)C3CC3)cc2OC[C@H](C)N(Cc2ccccc2)C[C@H]1C	inactive	–
C/C(=N\NC(=O)c1ccccc1O)C1CC1	inactive	–
O=C(Nc1ccc2c(c1)[C@H]1C[C@H](CC(=O)N3CCCCC3)O[C@@H](CO)[C@H]1O2)Nc1ccccc1F	inactive	–
CSCCC(NS(=O)(=O)c1ccccc1F)C(=O)NCC(C)(C)N1CCOCC1 (stereo not given)	inactive	–
CCC(=O)Nc1ccc2c(c1)OC[C@@H](C)N(Cc1ccccc1)C[C@@H](C)[C@@H](OC)CN(C)C2=O	inactive	–
CC(=O)Oc1cc(C(=O)OCC(=O)N2CCc3ccccc3C2)cc(OC(C)=O)c1OC(C)=O	inactive	–
CC(C)c1ccc(C(=O)N2CCCC(c3cc(C(=O)Nc4ccccc4Cl)no3)C2)cc1 (stereo not given)	inactive	–
CCC1=NN(C(=O)c2ccccc2O)C(O)(c2ccccc2)C1 (stereo not given)	inactive	–
O=C(CCCCCn1c(=S)[nH]c2cc3c(cc2c1=O)OCO3)N1CCN(c2ccc(F)cc2)CC1	inactive	–

Compound	activity change, negative = inhibition (at 26 µM (top of the series))	other results
COc1cccc(NC(=O)Cn2c(=O)n(C)c(=O)c3sc4c(c32)COC(C)(C)C4)c1	inactive	–
O=C(CCCCCn1c(=S)[nH]c2cc3c(cc2c1=O)OCO3)N1CCN(C2CCCCC2)CC1	inactive	–
COc1cccc(C(NC(=O)C2CCN(CCCOc3ccccc3)CC2)c2ccccn2)c1 (stereo not given)	inactive	–
C[c-]1[c-](C)[c-](C)[c-](C)[c-]1C.[Fe].c1cc2nccc(N3CCCC3)[c-]2c1 (stereo not given)	–	AC50: 5.86 µM
O=C(O)c1ccc2nnn(O)c2c1	inactive	–
O=C(O)c1cc([N+](=O)[O-])cc([N+](=O)[O-])c1N1CCN(c2cccc(C(F)(F)F)c2)CC1	inactive	–
O=C(Nc1ccc(C(=O)N2CCCC2)cc1)c1ccc2c(c1)OCO2	inactive	–
Cc1ccc(C(=O)NCC(=O)N(C)Cc2ccccc2C)s1	inactive	–
Cc1ccc(C)c(OCCC(=O)N2CCN(S(=O)(=O)c3cc(F)ccc3F)CC2)c1	inactive	–
O=C(Nc1cccc(F)c1)c1coc(=O)c(Br)c1	inactive	–
CCN(C(=O)COC(=O)CNC(=O)c1ccc2ccccc2c1)C1CCS(=O)(=O)C1 (stereo not given)	inactive	–
O=C(NCCCO)c1cc([N+](=O)[O-])cc2c1C=Cc1ccccc1O2	inactive	–
CN1CCN(c2ccc(CNC(=O)C3Cc4c(-c5ccc6c(c5)OCO6)ccnc4O3)cc2)CC1 (stereo not given)	inactive	–
Cc1[nH]ncc1Nc1c(C(C)C)cccc1C(C)C	inactive	–
CO[C@@H]1CN(C)C(=O)c2ccc(NC(=O)C3CC3)cc2OC[C@H](C)N(Cc2ccccc2)C[C@@H]1C	inactive	–
CCCN1C[C@H](C)[C@@H](OC)CN(C)C(=O)c2ccc(NC(=O)c3ccccc3)cc2OC[C@H]1C	inactive	–
COc1ccc2cc(C(c3nnnn3C3CCCC3)N3CCc4ccccc4C3)c(=O)[nH]c2c1 (stereo not given)	inactive	–
NCC[C@@H]1CC[C@H](NC(=O)c2ccccc2F)[C@@H](CO)O1	inactive	–
CCC(=O)Nc1ccc2c(c1)OC[C@@H](C)NC[C@@H](C)[C@@H](OC)CN(C)C2=O	inactive	–
O=C(COC(=O)c1cccc(OC(F)F)c1)Nc1cccc(S(=O)(=O)N2CCCC2)c1	inactive	–
CCNC(=S)N1CCCCC1CO (stereo not given)	inactive	–
COCC(=O)Nc1ccc2c(c1)OC[C@@H](C)N(CC1CC1)C[C@H](C)[C@H](OC)CN(C)C2=O	inactive	–
O=C(C[C@H]1C=C[C@H](NC(=O)c2ccccc2)[C@H](CO)O1)NCCc1ccncc1	inactive	–
CC(C)NC(=O)N1[C@H](CO)[C@@H](c2ccccc2)C12CN(C(=O)Cc1cccnc1)C2	inactive	–
Cc1ccc(Nc2ncnc3sccc23)c(C)c1	inactive	–

Compound	activity change, negative = inhibition (at 26 µM (top of the series))	other results
Cc1ccc(-c2nc3ccc(Cl)cn3c2Cc2ccsc2)cc1	inactive	–
COC(=O)c1cccc(NC(=O)c2cccc(N3C(=O)CCC3=O)c2)c1	inactive	–
Nc1ccc2cn[nH]c2c1	inactive	–
COCC(=O)Nc1ccc2c(c1)OC[C@H](C)N(CC1CC1)C[C@H](C)[C@H](OC)CN(C)C2=O	inactive	–
Cc1ccc(S(=O)(=O)N2CCC(C(=O)NCCCN3CCOCC3)CC2)cc1C	inactive	–
C#CCOc1ccc(CNC[C@H]2O[C@@H](n3ccc(N)nc3=O)[C@H](O)[C@@H]2O)cc1	inactive	–
CCCC(=O)Nc1ccc2c(c1)OC[C@@H](C)N(Cc1ccc(F)cc1)C[C@H](C)[C@@H](OC)CN(C)C2=O	inactive	–
CCOC(=O)C1=C(COC(=O)c2ccc([N+](=O)[O-])s2)NC(=O)NC1C (stereo not given)	inactive	–
CCCc1cc(-c2n[nH]c(C(=O)OCC)c2-c2cscn2)c(O)cc1O	inactive	–
C=CCC(NCc1ccccc1)c1ccc(Cl)cc1 (stereo not given)	inactive	–
O=C(CCCn1c(=S)[nH]c2cc3c(cc2c1=O)OCO3)N1CCN(c2ccccc2F)CC1	inactive	–
O=C(Cc1ccccn1)NCC[C@@H]1CC[C@@H](NC(=O)c2ccccc2F)[C@H](CO)O1	inactive	–
O=C(N/N=C/c1ccc([N+](=O)[O-])o1)c1ccccc1NS(=O)(=O)c1cccs1	inactive	–
CCOc1ccc(N(CC(=O)Nc2cc(Cl)ccc2C)S(C)(=O)=O)cc1	inactive	–
O=C(Nc1cc(Cl)cc(Cl)c1)c1coc(=O)c(Br)c1	inactive	–
Cc1ccc(NC(=O)c2sc(C)nc2C)c(C)c1	inactive	–
COC(=O)[C@H]1[C@H](CO)[C@H]2Cn3c(cccc3=O)[C@H]2N1CC1CCOCC1	inactive	–
CCC(C)(C)NC(=O)CN(C(=O)CNS(=O)(=O)c1ccc(F)cc1)c1ccc2c(c1)OCCO2	inactive	–
Cc1ccc([N+](=O)[O-])cc1S(=O)(=O)Nc1ccc(C(=O)N2CCN(C(=O)c3ccco3)CC2)cc1	inactive	–
Nc1cccnc1Oc1ccc(F)cc1	inactive	–
COc1cccc(S(=O)(=O)N2C[C@@H]3N[C@H](C2)C3c2ccc(-c3ccccc3C)cc2)c1 (stereo not given in full)	inactive	–
Cc1csc(=O)n1CC(=O)OCC(=O)NCc1ccc(F)cc1	inactive	–
CN(C)CCNC(=O)c1cccc(S(=O)(=O)Nc2ccccc2F)c1	inactive	–
CN1C(=O)NC(=O)C(N=Nc2ccc(Cl)cc2)C1=O (stereo not given)	inactive	–
CC(=O)N1CCc2c(sc(NC(=O)Cc3ccccc3)c2C(N)=O)C1	inactive	–
